Laboratory results from the NIST ThermoML archive (doi:10.1021/je060107n).
± gives the expanded uncertainty stated by the source.

Test: mn = molality of the nth substance listed, in mol/kg
Conditions: 101 kPa, Liquid; for mass density: Pycnometric method; for viscosity: Capillary tube (Ostwald / Ubbelohde) method; for speed of sound: Linear variable-path acoustic interferometer

O=[N+]([O-])[O-].O=[N+]([O-])[O-].[Mg+2] [magnesium nitrate] + O
Conditions	mass density [kg/m3]	speed of sound [m/s]	viscosity [mPa·s]
314.7 K, m1 = 0.0528	996.94 ± 0.66	–	–
315 K, m1 = 0.0145	992.8 ± 0.65	–	–
315.05 K, m1 = 1.525	1135.2 ± 0.8	–	–
315.1 K, m1 = 3.501	1288.9 ± 0.9	–	–
315.15 K, m1 = 3.757	1305.4 ± 0.9	–	–
315.25 K, m1 = 0.9898	1088.5 ± 0.8	–	–
315.25 K, m1 = 1.262	1112.4 ± 0.8	–	–
315.3 K, m1 = 3.17	1270.8 ± 0.8	–	–
315.6 K, m1 = 4.728	1367.6 ± 1.1	–	–
315.8 K, m1 = 5.134	1391.1 ± 1	–	–
315.95 K, m1 = 0.3405	1025.4 ± 0.7	–	–
316.1 K, m1 = 0.896	1079 ± 0.7	–	–
316.1 K, m1 = 2.793	1238.2 ± 0.9	–	–
316.15 K, m1 = 1.827	1162.1 ± 0.8	–	–
316.25 K, m1 = 4.039	1322.3 ± 0.9	–	–
316.35 K, m1 = 4.97	1380.1 ± 1	–	–
316.45 K, m1 = 5.282	1399.6 ± 1	–	–
316.75 K, m1 = 0.6173	1052.2 ± 0.8	–	–
317.15 K, m1 = 0.0528	995.93 ± 0.66	–	–
317.15 K, m1 = 3.501	1287.7 ± 1	–	–
317.25 K, m1 = 1.525	1134 ± 0.8	–	–
317.25 K, m1 = 3.096	1259.7 ± 1.2	–	–
317.35 K, m1 = 2.493	1213.8 ± 1	–	–
317.35 K, m1 = 3.757	1304.1 ± 0.9	–	–
317.5 K, m1 = 0.9898	1087.3 ± 0.8	–	–
317.5 K, m1 = 1.262	1111.2 ± 0.8	–	–
317.55 K, m1 = 3.118	1260.5 ± 0.8	–	–
317.55 K, m1 = 4.285	1337.9 ± 1	–	–
317.75 K, m1 = 2.131	1186 ± 0.9	–	–
317.85 K, m1 = 0.2491	1016.9 ± 0.7	–	–
317.95 K, m1 = 4.883	1372.7 ± 1	–	–
318.15 K, m1 = 0.0145	–	1540.2 ± 1.9	0.6082 ± 0.008
318.15 K, m1 = 0.0528	–	1541.4 ± 1.9	0.62 ± 0.0082
318.15 K, m1 = 0.2491	–	1554.4 ± 1.9	0.655 ± 0.0086
318.15 K, m1 = 0.3405	–	1552.3 ± 1.9	–
318.15 K, m1 = 0.5931	–	–	0.7284 ± 0.0096
318.15 K, m1 = 0.6173	–	1572 ± 1.9	–
318.15 K, m1 = 0.896	–	1590 ± 1.9	–
318.15 K, m1 = 0.9898	–	1596.3 ± 1.9	0.8367 ± 0.011
318.15 K, m1 = 1.262	–	1612.6 ± 1.9	0.9225 ± 0.012
318.15 K, m1 = 1.525	–	1629.5 ± 1.9	–
318.15 K, m1 = 1.827	1160.9 ± 0.8	1650.5 ± 1.9	1.117 ± 0.015
318.15 K, m1 = 2.131	–	1668.7 ± 2	1.245 ± 0.016
318.15 K, m1 = 2.493	–	1689.3 ± 2	–
318.15 K, m1 = 2.584	–	–	1.473 ± 0.019
318.15 K, m1 = 2.793	–	1708.7 ± 2	–
318.15 K, m1 = 3.096	–	–	1.772 ± 0.023
318.15 K, m1 = 3.118	–	1727.2 ± 2	–
318.15 K, m1 = 3.17	–	1733.9 ± 2	–
318.15 K, m1 = 3.329	–	–	1.935 ± 0.025
318.15 K, m1 = 3.501	–	1748.8 ± 2	–
318.15 K, m1 = 3.704	–	–	2.216 ± 0.029
318.15 K, m1 = 3.757	–	1761.7 ± 2	–
318.15 K, m1 = 4.039	–	–	2.545 ± 0.033
318.15 K, m1 = 4.051	1321.2 ± 0.9	1776 ± 2	–
318.15 K, m1 = 4.285	–	1787.8 ± 2	–
318.15 K, m1 = 4.403	–	1794.4 ± 2	–
318.15 K, m1 = 4.728	–	–	3.456 ± 0.045
318.15 K, m1 = 4.883	–	1818.4 ± 2.1	–
318.15 K, m1 = 4.907	–	–	3.76 ± 0.049
318.15 K, m1 = 5.134	–	1832.8 ± 2.1	–
318.15 K, m1 = 5.282	–	–	4.426 ± 0.058
318.25 K, m1 = 3.704	1300.4 ± 0.9	–	–
318.35 K, m1 = 2.584	1221.6 ± 0.8	–	–
318.4 K, m1 = 0.896	1077.9 ± 0.7	–	–
318.5 K, m1 = 4.97	1378.6 ± 1	–	–
318.7 K, m1 = 1.694	1148.1 ± 0.9	–	–
318.8 K, m1 = 4.403	1344 ± 0.9	–	–
318.8 K, m1 = 5.282	1398.1 ± 1	–	–
318.9 K, m1 = 0.5931	1048.4 ± 0.8	–	–
319.05 K, m1 = 0.6173	1051.1 ± 0.7	–	–
319.35 K, m1 = 1.525	1132.8 ± 0.8	–	–
319.35 K, m1 = 3.757	1302.8 ± 1	–	–
319.45 K, m1 = 3.118	1259.2 ± 0.8	–	–
319.5 K, m1 = 3.17	1268.1 ± 0.9	–	–
319.55 K, m1 = 0.0528	994.98 ± 0.7	–	–
319.55 K, m1 = 1.262	1110.2 ± 0.8	–	–
319.9 K, m1 = 2.131	1184.8 ± 0.8	–	–
319.9 K, m1 = 4.728	1364.8 ± 1	–	–
319.95 K, m1 = 0.0145	990.65 ± 0.67	–	–
320.2 K, m1 = 5.134	1388.4 ± 1	–	–
320.25 K, m1 = 2.793	1235.8 ± 0.9	–	–
320.3 K, m1 = 1.827	1159.7 ± 0.8	–	–
320.3 K, m1 = 4.039	1319.5 ± 0.9	–	–
320.65 K, m1 = 0.2491	1014.7 ± 0.8	–	–
320.85 K, m1 = 1.694	1146.9 ± 0.8	–	–
320.9 K, m1 = 0.3405	1023.3 ± 0.8	–	–
320.9 K, m1 = 5.282	1396.6 ± 1	–	–
321.25 K, m1 = 0.5931	1047.4 ± 0.7	–	–
321.35 K, m1 = 3.096	1257.2 ± 0.9	–	–
321.6 K, m1 = 2.493	1211.3 ± 1	–	–
321.75 K, m1 = 0.9898	1085.2 ± 0.7	–	–
321.8 K, m1 = 4.285	1335.1 ± 0.9	–	–
321.9 K, m1 = 4.728	1363.5 ± 1.3	–	–
321.95 K, m1 = 0.0528	993.94 ± 0.7	–	–
322.1 K, m1 = 0.0145	989.61 ± 0.7	–	–
322.2 K, m1 = 4.883	1370 ± 1.2	–	–
322.25 K, m1 = 2.793	1234.5 ± 0.9	–	–
322.35 K, m1 = 2.584	1219.2 ± 0.9	–	–
322.45 K, m1 = 3.704	1297.7 ± 0.9	–	–
322.45 K, m1 = 4.039	1318.2 ± 2.3	–	–
322.75 K, m1 = 0.2491	1013.6 ± 0.7	–	–
322.75 K, m1 = 4.051	1318.5 ± 0.9	–	–
322.8 K, m1 = 4.97	1375.7 ± 1	–	–
323.05 K, m1 = 4.403	1341.3 ± 1.2	–	–
323.15 K, m1 = 0.0145	–	1545.7 ± 1.9	0.5591 ± 0.0074
323.15 K, m1 = 0.0528	–	1548 ± 1.9	0.5708 ± 0.0076
323.15 K, m1 = 0.2491	–	1559.2 ± 1.9	0.6023 ± 0.0079
323.15 K, m1 = 0.3405	–	1563.6 ± 1.9	–
323.15 K, m1 = 0.5931	–	–	0.6703 ± 0.0088
323.15 K, m1 = 0.6173	–	1576.6 ± 1.9	–
323.15 K, m1 = 0.896	–	1593.9 ± 1.9	–
323.15 K, m1 = 0.9898	–	1600.3 ± 1.9	0.7676 ± 0.01
323.15 K, m1 = 1.262	–	1614.9 ± 1.9	0.8482 ± 0.011
323.15 K, m1 = 1.525	–	1631.4 ± 1.9	–
323.15 K, m1 = 1.827	–	1651.2 ± 1.9	1.028 ± 0.013
323.15 K, m1 = 2.131	–	1667.3 ± 2	1.145 ± 0.015
323.15 K, m1 = 2.493	–	1689.2 ± 2	–
323.15 K, m1 = 2.584	–	–	1.353 ± 0.017
323.15 K, m1 = 2.793	–	1707.5 ± 2	–
323.15 K, m1 = 3.096	–	–	1.629 ± 0.021
323.15 K, m1 = 3.118	–	1725.2 ± 2	–
323.15 K, m1 = 3.17	–	1731.8 ± 2	–
323.15 K, m1 = 3.329	–	–	1.772 ± 0.023
323.15 K, m1 = 3.501	–	1744 ± 2	–
323.15 K, m1 = 3.704	–	–	2.028 ± 0.026
323.15 K, m1 = 3.757	–	1758.7 ± 2	–
323.15 K, m1 = 4.039	–	–	2.319 ± 0.03
323.15 K, m1 = 4.051	–	1770.9 ± 2	–
323.15 K, m1 = 4.285	–	1783.2 ± 2	–
323.15 K, m1 = 4.403	–	1789.3 ± 2	–
323.15 K, m1 = 4.728	–	–	3.107 ± 0.04
323.15 K, m1 = 4.883	–	1811.5 ± 2.1	–
323.15 K, m1 = 4.907	–	–	3.418 ± 0.045
323.15 K, m1 = 5.134	–	1828.2 ± 2.1	–
323.15 K, m1 = 5.282	1395.1 ± 1	–	3.975 ± 0.052
323.4 K, m1 = 0.6173	1049 ± 0.7	–	–
323.5 K, m1 = 1.525	1130.6 ± 0.8	–	–
323.5 K, m1 = 3.757	1300.1 ± 0.8	–	–
323.55 K, m1 = 3.17	1265.4 ± 1.5	–	–
323.6 K, m1 = 3.118	1256.7 ± 1.5	–	–
323.75 K, m1 = 1.262	1107.8 ± 0.8	–	–
323.95 K, m1 = 0.9898	1084 ± 0.8	–	–
323.95 K, m1 = 2.131	1182.5 ± 0.9	–	–
324.25 K, m1 = 1.827	1157.4 ± 0.9	–	–
324.45 K, m1 = 5.134	1385.4 ± 1	–	–
324.95 K, m1 = 1.694	1144.5 ± 0.8	–	–
325.25 K, m1 = 5.282	1393.7 ± 1	–	–
